pIC50: −log10 of the molar value. Read-outs that look alike come from different tables or passages of the source.
Biological target: T1, human Nav1.8/b3 (Homo sapiens, UniProt Q9Y5Y9)
T1 construct: expressed in transfected cells; host or cells: CHO
Assay: Compound Profiling Human NaV1.8/β3 Cell Line—SyncroPatch384PE Assay (automated patch clamp, stably transfected CHO cells)
Type: cell-based
Conditions: Nav1.8/b3 CHO cells

[1] = P1 (IC50, resting state block), P1 measurement, resting state block, holding potential −120 mV, first set of compounds
[2] = P2 (IC50, inactivated state block), P2 measurement, inactivated state block, inactivation step −35 mV 10 sec, first set of compounds
[3] = P1 (IC50, resting state block), P1 measurement, resting state block, holding potential −120 mV, third set of compounds
[4] = P2 (IC50, inactivated state block), P2 measurement, inactivated state block, inactivation step −35 mV 10 sec, third set of compounds
[5] = P1 (IC50, resting state block), P1 measurement, resting state block, holding potential −120 mV, fourth set of compounds
[6] = P2 (IC50, inactivated state block), P2 measurement, inactivated state block, inactivation step −35 mV 10 sec, fourth set of compounds
[7] = P1 (IC50, resting state block), P1 measurement, resting state block, holding potential −120 mV, second set of compounds
[8] = P2 (IC50, inactivated state block), P2 measurement, inactivated state block, inactivation step −35 mV 10 sec, second set of compounds

T1 sequence (Q9Y5Y9 whole entry): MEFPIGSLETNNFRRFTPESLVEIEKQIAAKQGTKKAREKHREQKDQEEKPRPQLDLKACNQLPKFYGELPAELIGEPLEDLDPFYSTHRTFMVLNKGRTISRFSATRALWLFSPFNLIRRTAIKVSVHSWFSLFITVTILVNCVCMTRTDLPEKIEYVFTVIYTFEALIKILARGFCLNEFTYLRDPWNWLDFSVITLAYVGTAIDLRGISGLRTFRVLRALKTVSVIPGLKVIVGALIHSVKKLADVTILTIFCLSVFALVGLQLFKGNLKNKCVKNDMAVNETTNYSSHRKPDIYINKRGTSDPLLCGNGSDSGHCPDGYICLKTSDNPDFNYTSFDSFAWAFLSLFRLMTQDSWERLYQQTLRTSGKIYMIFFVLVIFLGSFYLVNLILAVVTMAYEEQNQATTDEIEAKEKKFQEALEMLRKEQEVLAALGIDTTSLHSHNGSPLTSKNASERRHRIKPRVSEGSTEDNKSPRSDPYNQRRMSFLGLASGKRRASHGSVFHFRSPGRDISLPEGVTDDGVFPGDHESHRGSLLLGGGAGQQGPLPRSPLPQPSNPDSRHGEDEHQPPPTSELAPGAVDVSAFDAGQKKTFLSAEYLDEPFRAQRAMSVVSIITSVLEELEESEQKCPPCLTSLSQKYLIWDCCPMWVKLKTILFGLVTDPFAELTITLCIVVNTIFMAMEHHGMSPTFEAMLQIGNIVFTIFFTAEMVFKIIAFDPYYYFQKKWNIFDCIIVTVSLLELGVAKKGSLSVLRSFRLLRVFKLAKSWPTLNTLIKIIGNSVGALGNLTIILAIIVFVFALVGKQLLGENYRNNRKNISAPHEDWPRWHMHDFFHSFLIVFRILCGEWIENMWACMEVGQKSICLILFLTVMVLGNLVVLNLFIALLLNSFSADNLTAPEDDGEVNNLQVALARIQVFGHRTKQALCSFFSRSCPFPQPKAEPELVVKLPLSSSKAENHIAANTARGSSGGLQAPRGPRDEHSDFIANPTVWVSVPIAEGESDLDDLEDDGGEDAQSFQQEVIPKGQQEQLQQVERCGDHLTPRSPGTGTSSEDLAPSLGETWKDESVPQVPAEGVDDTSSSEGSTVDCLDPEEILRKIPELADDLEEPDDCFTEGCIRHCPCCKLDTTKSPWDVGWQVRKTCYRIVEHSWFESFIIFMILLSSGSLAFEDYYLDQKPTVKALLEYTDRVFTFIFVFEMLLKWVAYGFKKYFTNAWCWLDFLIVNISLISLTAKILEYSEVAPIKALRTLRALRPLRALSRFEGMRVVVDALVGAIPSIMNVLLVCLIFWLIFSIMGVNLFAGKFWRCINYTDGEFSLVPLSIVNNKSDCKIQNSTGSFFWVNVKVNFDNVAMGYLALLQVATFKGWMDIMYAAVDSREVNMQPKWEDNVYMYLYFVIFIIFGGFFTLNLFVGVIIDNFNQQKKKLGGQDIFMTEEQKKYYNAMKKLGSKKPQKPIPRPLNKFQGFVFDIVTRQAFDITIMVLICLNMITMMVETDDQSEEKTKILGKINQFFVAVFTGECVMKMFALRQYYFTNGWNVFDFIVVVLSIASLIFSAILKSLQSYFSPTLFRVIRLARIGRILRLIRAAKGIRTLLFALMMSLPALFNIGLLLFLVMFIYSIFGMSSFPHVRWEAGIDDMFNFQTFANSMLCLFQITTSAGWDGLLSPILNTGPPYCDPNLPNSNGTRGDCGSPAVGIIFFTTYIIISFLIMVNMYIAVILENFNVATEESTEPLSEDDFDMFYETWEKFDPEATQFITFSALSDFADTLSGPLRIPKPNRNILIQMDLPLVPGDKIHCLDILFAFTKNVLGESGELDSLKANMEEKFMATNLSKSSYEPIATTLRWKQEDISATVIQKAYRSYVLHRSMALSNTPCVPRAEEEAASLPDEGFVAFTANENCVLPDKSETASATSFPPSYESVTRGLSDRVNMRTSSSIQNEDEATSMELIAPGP
T1 sequence (Q9NY72 23-215 partner): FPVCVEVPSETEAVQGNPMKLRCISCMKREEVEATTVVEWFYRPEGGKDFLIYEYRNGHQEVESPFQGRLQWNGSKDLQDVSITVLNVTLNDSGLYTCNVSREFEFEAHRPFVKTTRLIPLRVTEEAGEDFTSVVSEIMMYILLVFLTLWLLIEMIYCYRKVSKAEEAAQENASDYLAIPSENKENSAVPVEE

SMILES	pIC50 [3]	pIC50 [4]	further results
Cc1nc(F)ccc1Oc1cc(C(F)(F)F)c(Cl)cc1C(=O)Nc1ccc([S@](C)(=N)=O)cc1 [Example 49A]			pIC50 [1]: 7.00 to 7.30; pIC50 [2]: 7.00 to 7.30
Cc1nc(F)ccc1Oc1ncc(C(F)(F)F)c(C)c1C(=O)Nc1cccc(S(N)(=O)=O)c1 [Example 8C, 2-((6-fluoro-2-methylpyridin-3-yl)oxy)-4-methyl-N-(3-sulfamoylphenyl)-5-(trifluoromethyl)nicotinamide]	> 8.30	> 8.30	
Cc1nc(F)ccc1Oc1ncc(C(F)(F)F)c(C)c1C(=O)Nc1cccc([S@@](C)(=O)=NC(=O)CO)c1 [Example 12D, (R)-2-((6-fluoro-2-methylpyridin-3-yl)oxy)-N-(3-(N-(2-hydroxyacetyl)-S-methylsulfonimidoyl)phenyl)-4-methyl-5-(trifluoromethyl)nicotinamide]			pIC50 [5]: > 8.30; pIC50 [6]: > 8.30
Cc1nc(F)ccc1Oc1cc(C(F)(F)F)cc(F)c1C(=O)Nc1ccc(C(N)=O)cc1 [Example 36A]			pIC50 [1]: 7.30 to 8.30; pIC50 [2]: 7.30 to 8.30
COc1cc(C#N)ccc1Oc1ncc(-c2ccc(C(F)F)cc2)c(C)c1C(=O)Nc1cccc([S@](C)(=N)=O)c1 [Example 23C, (R)-2-(4-cyano-2-methoxyphenoxy)-5-(4-(difluoromethyl)phenyl)-4-methyl-N-(3-(S-methylsulfonimidoyl)phenyl)nicotinamide]	> 8.30	> 8.30	
COc1cc(C#N)ccc1Oc1ncc(-c2ccc(C)cc2)c(C)c1C(=O)Nc1cccc([S@](C)(=N)=O)c1 [Example 21C, (R)-2-(4-cyano-2-methoxyphenoxy)-4-methyl-N-(3-(S-methylsulfonimidoyl)phenyl)-5-(p-tolyl)nicotinamide]	> 8.30	> 8.30	
CNCC(=O)N=[S@](C)(=O)c1cccc(NC(=O)c2ccc(C(F)(F)F)cc2Oc2ccc(F)nc2C)c1 [Example 10B, (R)-2-((6-fluoro-2-methylpyridin-3-yl)oxy)-N-(3-(S-methyl-N-(methylglycyl)sulfonimidoyl)phenyl)-4-(trifluoromethyl)benzamide]			pIC50 [7]: 7.30 to 8.30; pIC50 [8]: 7.30 to 8.30
Cc1nc(F)ccc1Oc1ccc(C(F)(F)F)c(F)c1C(=O)Nc1cccc([S@@](C)(=O)=NC(=O)[C@@H](C)N)c1 [Example 15B, N-(3-((R)—N-(D-alanyl)-S-methylsulfonimidoyl)phenyl)-2-fluoro-6-((6-fluoro-2-methylpyridin-3-yl)oxy)-3-(trifluoromethyl)benzamide]			pIC50 [7]: > 8.30; pIC50 [8]: > 8.30
Cc1nc(F)ccc1Oc1cc(C(F)(F)F)c(Cl)c(C)c1C(=O)Nc1cccc([S@](C)(=N)=O)c1 [Example 10A, (R)-3-chloro-6-((6-fluoro-2-methylpyridin-3-yl)oxy)-2-methyl-N-(3-(S-methylsulfonimidoyl)phenyl)-4-(trifluoromethyl)benzamide]			pIC50 [1]: > 8.30; pIC50 [2]: > 8.30
Cc1nc(F)ccc1Oc1cc(C2CC2)c(C(F)(F)F)cc1C(=O)Nc1cccc([S@@](C)(=N)=O)c1 [Example 59A]			pIC50 [1]: > 8.30; pIC50 [2]: > 8.30
COc1cc(C#N)ccc1Oc1ncc(Br)c(C)c1C(=O)Nc1cccc([S@](C)(=N)=O)c1 [Example 24C, (R)-5-bromo-2-(4-cyano-2-methoxyphenoxy)-4-methyl-N-(3-(S-methylsulfonimidoyl)phenyl)nicotinamide]	> 8.30	> 8.30	
COc1cc(C#N)ccc1Oc1ncc(-c2cn(C)nc2C)c(C)c1C(=O)Nc1cccc([S@](C)(=N)=O)c1 [Example 27C, (R)-2-(4-cyano-2-methoxyphenoxy)-5-(1,3-dimethyl-1H-pyrazol-4-yl)-4-methyl-N-(3-(S-methylsulfonimidoyl)phenyl)nicotinamide]	7.00 to 7.30	7.00 to 7.30	
COc1cc(C#N)ccc1Oc1ncc(-c2ccc(C(F)F)cc2)c(C)c1C(=O)Nc1ccnc([S@@](C)(=N)=O)c1 [Example 16C, (S)-2-(4-cyano-2-methoxyphenoxy)-5-(4-(difluoromethyl)phenyl)-4-methyl-N-(2-(S-methylsulfonimidoyl)pyridin-4-yl)nicotinamide]	< 6.70	< 6.70	
C[S@@](=N)(=O)c1cccc(NC(=O)c2c(Oc3ccc(OC(F)(F)F)cc3)cc(C(F)(F)F)c(Cl)c2Oc2ccc(OC(F)(F)F)cc2)c1 [Example 46A]			pIC50 [1]: 6.70 to 7.00; pIC50 [2]: 6.70 to 7.00
Cc1nc(F)ccc1Oc1ncc(C(F)(F)F)c(C)c1C(=O)Nc1cccc([S@@](C)(=O)=NC(=O)[C@@H](C)O)c1 [Example 16D, 2-((6-fluoro-2-methylpyridin-3-yl)oxy)-N-(3-((R)—N—((R)-2-hydroxypropanoyl)-S-methylsulfonimidoyl)phenyl)-4-methyl-5-(trifluoromethyl)nicotinamide]			pIC50 [5]: > 8.30; pIC50 [6]: > 8.30
C[S@@](=N)(=O)c1cc(NC(=O)c2cc(Cl)c(C(F)(F)F)cc2OCC(F)(F)F)ccn1 [Example 35A]			pIC50 (P1 measurement, resting state block, holding potential −120 mV, first set of compounds, read-out: P1 (IC50, resting state block)): 7.00 to 7.30; pIC50 (P2 measurement, inactivated state block, inactivation step −35 mV 10 sec, first set of compounds, read-out: P2 (IC50, inactivated state block)): 7.00 to 7.30
Cc1nc(F)ccc1Oc1cc(C(F)(F)F)c(Cl)cc1C(=O)Nc1cccc([S@@](C)(=O)=NC(=O)[C@H](C)O)c1 [Example 3B, 5-chloro-2-((6-fluoro-2-methylpyridin-3-yl)oxy)-N-(3-((R)—N—((S)-2-hydroxypropanoyl)-S-methylsulfonimidoyl)phenyl)-4-(trifluoromethyl)benzamide]			pIC50 [7]: > 8.30; pIC50 [8]: > 8.30
COc1cc(C#N)ccc1Oc1ncc(C(F)(F)F)c(C)c1C(=O)Nc1cccc([S@](C)(=N)=O)c1 [Example 5C, (R)-2-(4-cyano-2-methoxyphenoxy)-4-methyl-N-(3-(S-methylsulfonimidoyl)phenyl)-5-(trifluoromethyl)nicotinamide]	> 8.30	> 8.30	
Cc1nc(F)ccc1Oc1cc(C2CC2)c(C(F)(F)F)cc1C(=O)Nc1ccnc([S@](C)(=N)=O)c1 [Example 58A]			pIC50 [1]: > 8.30; pIC50 [2]: > 8.30
COc1cc(C#N)ccc1Oc1cc(C(F)(F)F)nnc1C(=O)Nc1cccc(S(C)(=N)=O)c1 (stereo not drawn) [Example 34C, 4-(4-cyano-2-methoxyphenoxy)-N-(3-(S-methylsulfonimidoyl)phenyl)-6-(trifluoromethyl)pyridazine-3-carboxamide]	< 6.70	< 6.70	

More lines, main results first:

pIC50 [3]	pIC50 [4]	SMILES	further results
7.30 to 8.30	7.30 to 8.30	Cc1nc(F)ccc1Oc1ncc(C2CCC2)c(C)c1C(=O)Nc1ccnc([S@](C)(=N)=O)c1 [Example 98C]	
7.00 to 7.30	7.00 to 7.30	CCCc1cnc(Oc2ccc(F)nc2C)c(C(=O)Nc2cccc([S@](C)(=N)=O)c2)c1C [Example 103C]	
< 6.70	< 6.70	Cc1nc(F)ccc1Oc1ncc(C(F)F)c(C)c1C(=O)Nc1ccnc([S@@](C)(=N)=O)c1 [Example 114C]	
> 8.30	> 8.30	Cc1nc(F)ccc1Oc1ncc(C(F)(F)F)c(C)c1C(=O)Nc1ccc(C(N)=O)cc1 [Example 118C]	
< 6.70	< 6.70	Cc1nc(F)ccc1Oc1ncc(C(F)(F)F)c(C)c1C(=O)NC12CC(C(N)=O)(C1)C2 [Example 112C]	
> 8.30	> 8.30	Cc1nc(F)ccc1Oc1nc(C(F)(F)F)c(Cl)c(C)c1C(=O)Nc1ccc(F)c([S@](C)(=N)=O)c1 [Example 95C]	
7.30 to 8.30	7.30 to 8.30	Cc1nc(F)ccc1Oc1cnc(C(F)(F)F)c(F)c1C(=O)Nc1cccc([S@](C)(=N)=O)c1 [Example 110C]	
